From patent US20230172958A1, “USE OF COMPOUNDS FOR TREATING VIRAL INFECTIONS” (priority 2020, published 2023)

Tests used:
Format in all cases: cell-based
[1] = test system: V-ATPase; test: V-ATPase ELISA (Human V-Type Proton ATPase ELISA kit) on treated MDAMB231 cells; details: 100 nM (0.1 μM)/10,000 cells, 48 hours
Experimental: An ELISA test was performed using Human V-Type Proton ATPase ELISA kit (My BioSource Catlog no: MBS911862) to determine the V-ATPase inhibitory effect of the compounds of the present invention.
Procedure: 1.0 million cells of MDAMB231 (cell line rich in V-ATPase) were plated on 60 mm plates for 24 hours at 37° C. and 5% CO2. The cells were treated with the test compounds (Formula A to U) at a concentration of 100 nM (0.1 μM)/10,000 cells and incubated for 48 hours. After incubation the supernatant was discarded, the cells were washed with D.P.B.S. (Dulbecco's phosphate-buffered saline), scraped and stored at −80° C. for 48 hours. The cells were thawed, vortexed, homogenized for 7 minutes, followed by centrifugation for 3 minutes at 3000 R.P.M. The supernatant was taken for V-ATPase Assay.
Standards and samples were pipetted into the wells. Antibody specific for V-ATPase was pre-coated onto a microplate. Any V-ATPase present in the standard /sample would get bound by the immobilized antibody. After the incubation period any unbound substances were removed by washing and a biotin-conjugated antibody specific for V-ATPase was added to the wells and plates were re-incubated at 37° C. and 5% CO2. After washing, avidin conjugated Horseradish Peroxidase (HRP) was added to the wells. Following a wash to remove any unbound avidin-enzyme reagent, a substrate solution was added to the wells and colour developed was in proportion to the amount of V-ATPase bound in the initial step. The colour development was stopped, and the optical density was measured at 450 nm spectrophotometrically. The concentration of V-ATPase was then calculated by substituting the optical density in the regression equation obtained from the standards. Percent (%) reduction in V-ATPase was calculated by subtracting the amount of V-ATPase obtained from the untreated/conc. of V-ATPase in untreated X100.

[2] = test system: Human Peripheral Blood Lymphocytes; test: MTT toxicity assay on normal cells; details: 48 hours
Experimental: Toxicity studies of compounds of the present invention on normal cells The toxicity study was performed on Human Peripheral Blood Lymphocytes obtained differential centrifugation of defibrinated blood. MTT assay for compound of the present invention was performed to determine its toxicity. MTT assay is a simple and sensitive assay where, metabolic reducing activity of the cells is measured. It was carried out in the following manner.
A required volume of cell suspension was prepared as per the cell plating efficiency. 200 μl of prepared cell suspension was added in labelled 96 well plates and the plates were placed in an incubator for 18-24 hours at 37° C. and 5% CO2. Then, 2 μl of respective compound dilution was added and the plates were placed in the incubator for 48 hours at 37° C. and 5% CO2. The suspension was aspirated from the plates and 100 μl of working MTT solution (0.5 mg/ml MTT prepared from 5 mg/ml MTT stock in 1× complete media) was added. The plates were incubated in the incubator for 4 hours at 37° C. and 5% CO2. The plates were spinned down, supernatant removed, 200 μl DMSO was added, mixed gently and placed in the incubator for 10 minutes at 37° C. and 5% CO2. The absorbance at 570 nm was read and percentage viability and IC50 value of the compounds was calculated using regression analysis.

[3] = test system: SARS-CoV-2; test: Neutral Red reduction of virus-induced cytopathic effect (primary CPE assay) in Vero 76 cells; details: Severe acute respiratory syndrome coronavirus 2, virus-inhibitory
[4] = Neutral Red toxicity assay, uninfected cultures; details: African green monkey, Vero 76 cells (uninfected monolayers), cell-inhibitory
Experimental: Confluent or near-confluent cell culture monolayers of Vero 76 cells were prepared in 96-well disposable microplates the day before testing. Cells were maintained in MEM (Minimum Essential Medium Eagle) supplemented with 5% FBS (Fetal Bovine Serum). For antiviral assays the same medium was used but with FBS reduced to 2% and supplemented with 50-μg/ml gentamicin.
Compounds were dissolved in DMSO, saline or the diluent. […] The test compound was prepared at four serial log10 concentrations, usually 0.1, 1.0, 10, and 100 μg/ml or μM. Lower concentrations were used when insufficient compound was supplied. Five microwells were used per dilution: three for infected cultures and two for uninfected toxicity cultures. Controls for the experiment consisted of six microwells that were infected and not treated (virus controls) and six that were untreated and uninfected (cell controls) on every plate. A known active drug was tested in parallel as a positive control drug using the same method as was applied for test compounds. The positive control was tested with every test run.
Growth media was removed from the cells and the test compound was applied in 0.1 ml volume to wells at 2× concentration. Virus, normally at ˜60 CCID50 (50% cell culture infectious dose) in 0.1 ml volume is added to the wells designated for virus infection. Medium devoid of virus was placed in toxicity control wells and cell control wells. […] The plates were then stained with 0.011% neutral red for approximately two hours at 37° C. in a 5% CO2 incubator. The neutral red medium was removed by complete aspiration, and the cells may be rinsed 1× with phosphate buffered solution (PBS) to remove residual dye. The PBS was completely removed, and the incorporated neutral red was eluted with 50% Sorensen's citrate buffer/50% ethanol for at least 30 minutes. Neutral red dye penetrates into living cells, thus, the more intense the red color, the larger the number of viable cells present in the wells. The dye content in each well was quantified using a spectrophotometer at 540 nm wavelength. The dye content in each set of wells was converted to a percentage of dye present in untreated control wells using a Microsoft Excel computer-based spreadsheet and normalized based on the virus control. The 50% effective (EC50, virus-inhibitory) concentrations and 50% cytotoxic (CC50, cell-inhibitory) concentrations are then calculated by regression analysis. The quotient of CC50 divided by EC50 gives the selectivity index (SI) value.

Row | SMILES | reduction of V-ATPase (%) [1] | IC50 (μM) [2] | EC50 [3] | CC50 [4]
1 | O=C(CN1CCNCC1)Nc1ccc(-c2ccc3c(c2)OCO3)c2ccccc12 [Compound of Formula K, N-(1-(benzo[d][1,3]dioxol-5-yl)naphthalen-4-yl)-2-(piperazin-1-yl)acetamide] | 28.05% | – | – | –
2 | O=S(=O)(Nc1ccc(-c2ccc3c(c2)OCO3)c2ccccc12)c1ccccc1 [Compound of Formula I, N-(1-(benzo[d][1,3]dioxol-5-yl)naphthalen-4-yl)benzenesulphonamide] | 20.56% | No activity (Nontoxic) | – | –
3 | C=CCNCCCCCCOc1ccc(-c2ccc3c(c2)OCO3)c2c1CCCC2 [Compound of Formula R, 6-(5-(benzo[d][1,3]dioxol-5-yl)-1,2,3,4-tetrahydronaphthalen-8-yloxy)-N-allylhexan-1-amine] | 16.2% | – | – | –
4 | COc1cccc(-c2ccc(OCCN3CCOCC3)c3ccccc23)c1 [Compound of Formula P, 4-(2-(1-(3-methoxyphenyl)naphthalen-4-yloxy)ethyl)morpholine] | 18.27% | No activity (Nontoxic) | – | –
5 | O=S(=O)(Nc1ccc(-c2ccc3c(c2)OCO3)c2ccccc12)c1ccc(F)cc1 [Compound of Formula J, N-(1-(benzo[d][1,3]dioxol-5-yl)naphthalen-4-yl)-4-fluorobenzenesulphonamide] | 60.96% | – | – | –
6 | c1ccc(COc2ccc(-c3ccc4c(c3)OCO4)c3cccnc23)cc1 [Compound of Formula H, 5-(benzo[d][1,3]dioxol-5-yl)-8-(benzyloxy)quinoline] | 61.34% | – | – | –
7 | COc1cc2c(OC3OCC(OC)C(OC)C3O)c3c(c(-c4ccc5c(c4)OCO5)c2cc1OC)C(=O)OC3 (stereo not drawn) [Compound of Formula A, 9-(benzo[d][1,3]dioxol-5-yl)-6,7-dimethoxy-4-(tetrahydro-3-hydroxy-4,5-dimethoxy-2H-pyran-2-yloxy)naphtho[2,3-c]furan-1(3H)-one] | 13.31% | – | > 0.1 µg/mL | < 0.1 µg/mL
8 | O[C@H]1[C@H](O)COC(Oc2ccc(-c3ccc4c(c3)OCO4)c3ccccc23)[C@@H]1O (stereo partly drawn) [Compound of Formula F, (3R,4S,5R)-2-(1-(benzo[d][1,3]dioxol-5-yl)naphthalen-4-yloxy)-tetrahydro-2H-pyran-3,4,5-triol] | 61.0% | – | 2.9 µg/mL | 32 µg/mL
9 | CCOC(=O)c1c(C(=O)OCC)c(-c2ccc3c(c2)OCO3)c2cc(OC)c(OC)cc2c1OC1OCC(OC)C(OC)C1O (stereo not drawn) [Compound of Formula D, diethyl 1-(benzo[d][1,3]dioxol-5-yl)-6,7-dimethoxy-4-(tetrahydro-3-hydroxy-4,5-dimethoxy-2H-pyran-2-yloxy)naphthalene-2,3-dicarboxylate] | 18.2% | No activity (Nontoxic) | 32 µg/mL | 40 µg/mL
10 | COc1cc2c(OC(=O)c3cccn3C)c3c(c(-c4ccc5c(c4)OCO5)c2cc1OC)C(=O)OC3 [Compound of Formula B, 9-(benzo[d][1,3]dioxol-5-yl)-1,3-dihydro-6,7-dimethoxy-1-oxonaphtho[2,3-c]furan-4-yl 1-methyl-1H-pyrrole-2-carboxylate] | 15.33% | No activity (Nontoxic) | – | –
11 | c1cnc2c(OCCN3CCOCC3)ccc(-c3ccc4c(c3)OCO4)c2c1 [Compound of Formula S, 8-(2-morpholinoethoxy)-5-(benzo[d][1,3]dioxol-5-yl)quinoline] | 75.5% | – | – | –
12 | c1cc2c(cc1-c1ccc(OCCCCCCNC3CCCCC3)c3c1CCCC3)OCO2 [Compound of Formula Q, N-(6-(5-(benzo[d][1,3]dioxol-5-yl)-1,2,3,4-tetrahydronaphthalen-8-yloxy)hexyl)cyclohexanamine] | 77.42% | – | – | –
13 | COc1cc2c(OC(=O)C(c3ccccc3)C3CCCC3)c3c(c(-c4ccc5c(c4)OCO5)c2cc1OC)C(=O)OC3 (stereo not drawn) [Compound of Formula C, 9-(benzo[d][1,3]dioxol-5-yl)-1,3-dihydro-6,7-dimethoxy-1-oxonaphtho[2,3-c]furan-4-yl 2-cyclopentyl-2-phenylacetate] | 14.69% | No activity (Nontoxic) | – | –
14 | c1ccc2c(-c3ccc4c(c3)OCO4)ccc(OCCCCN3CCOCC3)c2c1 [Compound of Formula M, 4-(4-(1-(benzo[d][1,3]dioxol-5-yl)naphthalen-4-yloxy)butyl)morpholine] | 76.16% | – | – | –
15 | c1ccc2c(-c3ccc4c(c3)OCO4)ccc(OCCN3CCOCC3)c2c1 [Compound of Formula O, 4-(2-(1-(benzo[d][1,3]dioxol-5-yl)naphthalen-4-yloxy)ethyl)morpholine] | 20.26% | No activity (Nontoxic) | – | –
16 | O=C(CN1CCNCC1)NCCOc1ccc(-c2ccc3c(c2)OCO3)c2ccccc12 [Compound of Formula T, N-(2-(1-(benzo[d][1,3]dioxol-5-yl)naphthalen-4-yloxy)ethyl)-2-(piperazin-1-yl)acetamide] | 81.9% | – | – | –
17 | c1ccc2c(-c3ccc4c(c3)OCO4)ccc(OCCCCNC3CCCCC3)c2c1 [Compound of Formula N, N-(4-(1-(benzo[d][1,3]dioxol-5-yl)naphthalen-4-yloxy)butyl)cyclohexanamine] | 6.3% | – | – | –
18 | COc1cc2c(OCCCCN3CCOCC3)c3c(c(-c4ccc5c(c4)OCO5)c2cc1OC)C(=O)OC3 [Compound of Formula L, 4-(4-morpholinobutoxy)-9-(benzo[d][1,3]dioxol-5-yl)-6,7-dimethoxynaphtho[2,3-c]furan-1(3H)-one] | 21.0% | No activity (Nontoxic) | > 0.34 µg/mL | 0.34 µg/mL
19 | O=C(Nc1ccc(-c2ccc3c(c2)OCO3)c2ccccc12)c1ccco1 [Compound of Formula G, N-(1-(benzo[d][1,3]dioxol-5-yl)naphthalen-4-yl)furan-2-carboxamide] | 62.37% | – | – | –
20 | COc1ccc(-c2ccc(OCCN3CCOCC3)c3ccccc23)cc1OC [Compound of Formula U, 4-(2-(1-(3,4-dimethoxyphenyl)naphthalen-4-yloxy)ethyl)morpholine] | 16.57% | No activity (Nontoxic) | – | –
